Usually IC50 stands for the concentration at which inhibition is half-maximal. Low readings indicate inhibition by little substance, high ones a need for much substance.

The test concerns the target phosphoinositide-specific phospholipase C (PI-PLC) (Bacillus cereus, UniProt P14262). The experiment in a line: PI-PLC-induced liposome (LUV) aggregation assay, turbidity at […] nm, dose-response. The test is classed as biochemical.

phosphoinositide-specific phospholipase C (PI-PLC), sequence (P14262 32-329 limits assumed): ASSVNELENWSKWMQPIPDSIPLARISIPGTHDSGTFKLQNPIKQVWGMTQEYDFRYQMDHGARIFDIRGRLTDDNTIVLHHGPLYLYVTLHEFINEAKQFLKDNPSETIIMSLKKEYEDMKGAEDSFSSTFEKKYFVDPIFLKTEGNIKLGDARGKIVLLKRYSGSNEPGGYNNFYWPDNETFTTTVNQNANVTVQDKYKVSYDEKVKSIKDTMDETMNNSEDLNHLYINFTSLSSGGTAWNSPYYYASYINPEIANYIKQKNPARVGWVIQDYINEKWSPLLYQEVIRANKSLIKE

As to `N#C[C@@H]1CCCN1C(=O)CNC12CC3CC(CC(O)(C3)C1)C2` [LAF-237, 1-[[(3-hydroxy-1-adamantyl)amino]acetyl]-2-cyano-(S)-pyrrolidine], the IC50 was 100 µM.

The record behind these values is paper PMC4309170, “The dipeptidyl peptidase IV inhibitors vildagliptin and K-579 inhibit a phospholipase C: a case of promiscuous scaffolds in proteins” (F1000Research, 2015).
